Tests used:
Type in all cases: in vivo
house dust mites [1] = experiment: Effect against house dust mites, method not stated (one of the two methods); details: for cuts in the number of mites: without zinc pyrithione, at concentrations normally used for antimicrobial finishing, reduction to zero mites not quite achieved; for growth in the population of mites by a factor: control factor 2.6
Source text: On polyurethane foams based on polyester polyol, 2000 ppm of zinc pyrithione allowed a growth in the population of mites by a factor of 1.6, which is only insignificantly less than the corresponding control sample at a factor of 2.6. In the case of plasticized PVC, even 3000 ppm of zinc pyrithione allowed a growth in the population of mites by a factor of 1.4, while the PVC control sample returned a growth of again by a factor of 2.6. Both values are insufficient for the protection of the finished articles against colonization by mites, but they do form the basis for enhancement of the protection without the complete effect having to be supplied by the other active, permethrin for example.
(§1) Testing of the effect against house dust mites was carried out in the experiments according to one of the two methods described hereinbelow: • 1. The textile sample is cut to a size of 8×8 cm and placed on a glass plate of the same size. About 50 house dust mites in the adult stage, which were counted under the microscope, were placed in the center of the sample. Other stages were likewise present of course but are not counted. Some food (see method 2) is added. A 5 mm thick rubber plate with a 30 mm diameter hole in the middle is placed on the sample. The hole is covered from the top with a filter paper, and a metal plate with a hole in the middle is placed on the filter paper such that the hole is congruently positioned above the hole in the rubber plate. The sample plates thus prepared are fixed with clips and are then incubated for 6 or 8 weeks in an incubator at saturated humidity at 25° C. After the period of 6 or 8 weeks, the living adult mites were again counted under the microscope. In this method, the change in the number of mites compared with the initial value is calculated. The test is carried out in duplicate. • 2. The AFNOR NF G 39-011 test method, as carried out for example by TEC Laboratory, F-64600 Anglet, again utilizes 50 adult house dust mites, Dermatophagoides pteronyssinus, per test sample, which come from a stock culture from INRA Bordeaux and were bred for several years at 76% humidity at 25° C. in the complete absence of insecticides. The mites were fed on a mixture of wheat germ and brown brewer's yeast. The test is carried out at 17 to 23° C. The test duration is six weeks, and the mites are counted after they were driven out by application of heat. The test is carried out in quadruplicate. The reduction in the number of mites after six weeks compared with a non-finished control sample is determined.

house dust mites [2] = experiment: Method 1: live adult house dust mites counted on the textile sample after 6 or 8 weeks, change versus initial value
Protocol: as §1, with “The” for “Testing of the effect against house dust mites was carried out in the experiments according to one of the two methods described hereinbelow: • 1. The”, “After the period of 6 or 8 weeks, the living adult mites were again counted under the microscope.” left out, “[…],” for “F-64600 Anglet,”

[3] = test system: Dermatophagoides pteronyssinus; experiment: Method 2: AFNOR NF G 39-011 test, reduction in number of mites after six weeks versus non-finished control; details: cotton/polyester mattress ticking
Protocol: as §1, with “The” for “Testing of the effect against house dust mites was carried out in the experiments according to one of the two methods described hereinbelow: • 1. The”, “After the period of 6 or 8 weeks, the living adult mites were again counted under the microscope.” left out, “[…],” for “F-64600 Anglet,”

Row | Compound | cuts in the number of mites (house dust mites [1]) | reduction in the number of live mites, average (house dust mites [2]; Example 11: 1000 ppm on cotton, 6 weeks, control growth rate 273%) [%] | reduction in the number of live mites (house dust mites [2]; Example 11: 1400 ppm on polyester furniture covering fabric, 6 weeks, control growth rate 273%) [%] | live mites on samples after the test (house dust mites [2]; Example 3: 1.0% of aqueous dispersion comprising 15% zinc pyrithione padded with 3% NUVA TTC or 4% NUVA HPU or 4% NUVA HPC onto cotton, polyester or polyamide, cured 150° C. 90 seconds) | live mites on samples after the test (house dust mites [2]; Example 6: 0.4% of aqueous formulation comprising 48% zinc pyrithione padded with wetting agent and nonionized surfactant onto woven cotton, dried 180° C. 1 minute) | mite inhibition rate (MIR) compared with the non-finished control fabric, average ([3]; Example 5: 1.0% of formulation comprising 15% zinc pyrithione with 3% to 5% acrylate copolymers) [%] | mites on samples after the test ([3]; Example 5: 1.2% of formulation comprising 15% zinc pyrithione with 3% to 5% acrylate copolymers) | mites on samples after the test ([3]; Example 5: 1.5% of formulation comprising 15% zinc pyrithione with 3% to 5% acrylate copolymers) | growth in the population of mites by a factor (house dust mites [1]; plasticized PVC, 3000 ppm of zinc pyrithione) | growth in the population of mites by a factor (house dust mites [1]; polyurethane foams based on polyester polyol, 2000 ppm of zinc pyrithione)
1 | CCCCCCCCn1sccc1=O [2-n-octylisothiazolin-3-one] | fairly good cuts in the number of mites |  |  |  |  |  |  |  |  | 
2 | Oc1cc(Cl)ccc1Oc1ccc(Cl)cc1Cl [triclosan] | fairly good cuts in the number of mites | 57 | 38 |  |  |  |  |  |  | 
3 | zinc pyrithione |  |  |  | no longer any live mites | no longer any live mites | 99.3 | completely free of mites | completely free of mites | 1.4 | 1.6

From US8178119B2, “Method for the acaricidal finishing of textile materials” (Sanitized AG, priority 2004, dated 2012)
